Assays:
[1] = test system: Rhizoctonia damping-off pathogen (Rhizoctonial solani); test: Test Example 1: cucumber seed treatment, Rhizoctonia damping-off control; assay type: in vivo; conditions: cucumber (Sagamihanjiro) seed treatment, 9 days
Description: A DMSO solution of the compound I and a DMSO solution of tolclofos-methyl were respectively prepared. These solutions were mixed to prepare a DMSO solution containing predetermined concentrations of the compound I and tolclofos-methyl. Ten (10) μL of the DMSO solution and 1 g of cucumber (Sagamihanjiro) seeds were mixed by shaking in a 15-ml conical tube and then allowed to stand overnight to prepare treated seeds. A plastic pot was filled with sandy soil and the treated seeds were sown on it and then covered with sandy soil which had been mixed with a bran culture of Rhizoctonia damping-off pathogen (Rhizoctonial solani). The sown seeds were watered and then cultured in a greenhouse at 20 to 24° C. for 9 days. The occurrence of Rhizoctonia damping-off diseases was checked and the incidence of disease was calculated by Equation 1.
For comparison, a DMSO solution containing a predetermined concentration of tolclofos-methyl was prepared and subjected to the same test and then the incidence of disease was determined.
(§1) In order to calculate a control value, the same test was conducted in which the plants had been treated with none of the test compounds and the incidence of disease was determined.
(§2) The control value was calculated by the Equation 2 based on the incidence of disease thus determined. […]

[2] = test system: Rhizoctonia damping-off pathogen (Rhizoctonial solani); test: Test Example 2: spray to the foot of rice, Rhizoctonia damping-off control; assay type: in vivo; conditions: rice (Nipponbare), tolclofos-methyl 50 alone, 5 days
Description: A plastic pot was filled with sandy soil and seeds of rice (Nipponbare) were sown on it, followed by cultivation in a greenhouse for 5 weeks. A wettable powder of the compound I was prepared by mixing 10 parts of the compound I, 35 parts of a mixture of white carbon and a polyoxyethylene alkyl ether sulfate ammonium salt (weight ratio of 1:1) and 55 parts of water, followed by grinding the mixture. A wettable powder of tolclofos-methyl was prepared by mixing 10 parts of […], 35 parts of a mixture of white carbon and a polyoxyethylene alkyl ether sulfate ammonium salt (weight ratio of 1:1) and 55 parts of water, followed by grinding the mixture. Each of the wettable powder thus prepared was diluted with water, respectively, followed by mixing together to prepare a mixed solution containing predetermined concentrations of the compound I and tolclofos-methyl. The mixed solution was sprayed to the foot of the rice. […] The occurrence of Rhizoctonia damping-off diseases was checked and the incidence of disease was calculated by Equation 3. […]
as §1, §2

COP(=S)(OC)Oc1c(Cl)cc(C)cc1Cl [Tolclofos-methyl]
Control value ([1]; tolclofos-methyl 10 g/100 kg seeds alone): 38 | Control value ([1]; tolclofos-methyl 40 g/100 kg seeds alone): 75 | Control value [2]: 58
